Literature values in US20040131543A1, “Radiopharmaceuticals and radioactive microspheres for locoregional ablation of abnormal tissues” (priority 2002, published 2004).

Conditions: single intratracheal instillation, rats

## [Cl][Gd]([Cl])[Cl] [GdCl3, Gd chloride]
  Half-life of Gd deposited in lung tissue: extremely long half-life
